The record followed here is the SangsterLogP compilation.

This data set can be described thus: method code SF-HPLC, from DOI: 10.1002/jps.2600750811, PMID: 3772750. The settings on record: for logD: pH 7.4.

The term logD denotes lipophilicity at a set pH, counting ionised and neutral species. A higher logD goes with higher lipophilicity. One may read the logP as a log measure of how a compound divides between an organic and an aqueous phase.

Turning to `CC[C@H](C(=O)OCc1ccc(C)cc1)[C@H](COC(=O)c1ccccc1)Cc1cncn1C`, the log distribution coefficient (logD) turned out to be 4.7.

Regarding `CCCC(=O)OC[C@H](Cc1cncn1C)[C@H](CC)C(=O)OCc1ccc(C)cc1`, the logD stood at 4.19.

`CC[C@H](C(=O)OCc1ccccc1)[C@H](COC(=O)c1ccccc1)Cc1cncn1C` showed a logP of 4.37.

`CC[C@H](C(=O)OCc1ccc(C)cc1)[C@H](COC(=O)C(C)(C)C)Cc1cncn1C` displayed a logD of 4.4.

As to `CC[C@H](C(=O)OCc1ccc(Cl)cc1)[C@H](COC(=O)c1ccccc1)Cc1cncn1C`, the logP came to 4.9.

For `CCCCCC(=O)OCC(Cc1cncn1C)C(CC)C(=O)OCc1ccccc1` (stereo unspecified), the logD came to 4.6.

Consider `CCC(C(=O)OCc1ccccc1)C(COC(=O)Cc1ccccc1)Cc1cncn1C` (stereo unspecified), for which the logP was 4.

`CC[C@H](C(=O)OCc1ccc(C)cc1)[C@H](COC(C)=O)Cc1cncn1C` gave a logD of 3.16.

The compound `CCCC(=O)OCC(Cc1cncn1C)C(CC)C(=O)OCc1ccccc1` (stereo unspecified) came in with a logD of 3.63.

With `CC[C@H](C(=O)OCc1ccccc1)[C@H](COC(=O)c1cccc(Cl)c1)Cc1cncn1C`, the pH-dependent lipophilicity (logD) was 4.93.

In the case of `CC[C@H](C(=O)OCc1ccccc1)[C@H](COC(=O)c1cccnc1)Cc1cncn1C`, the log partition coefficient (logP) worked out at 3.05.
